From patent EP0470323A2, “New salts of the nicotinic acid with aminobenzylic compounds and their pharmaceutical use” (BROMLEY LIMITED, priority 1990, dated 1992)

System: red cells in the rat
Assay: Red cell adhesivity / filtration, Teitel method
Assay type: in vivo
Conditions: listed as Compound as Ex. 1
Description: steresis (Teiltel P.: Nouv. Rev. Franç. Hématol. 7, 195, 1967). Any alteration, almost undoubtely at the level of the red cell's membrane, cause some damaging variations of the red cell's elasticity thus making more difficult the passing through the capillary vessels having more reduced diameter, and therefore increasing the flow resistance in the peripheral vessels systems. In order to determine the effect caused by the compound according to the Example 1, on these features of the red cell, the method described by Schmidt, Schonbein and colleagues (Blut 26, 369, 1973) has been used.
In the circulatory flow, the above mentioned capillary vessels being excluded, the blood cells do normally circulate being attached between each other because of their adhesiveness. In order to study this adhesion force, the above mentioned Teitel method has been used. Male rats of 150 g body weight approximately have been employed, and they have been treated for three consecutive days with 0,5 mM/kg/os of the compound according to the Example 1, or otherwise Buflomedil, or even Pentosiphillin used as comparison substance. After the last treatment the animals, without eating from 18 hours, have been killed in a light ethereal anaesthesy and the blood was collected over an 0,2 molar EDTA (9 and 1 volumes respectively). The red cells filtering possibility, measured with the Teitel method, wherein the quantity of red cells passing, in high haematocritical conditions, through a paper filter with holes of 20-40 µm in a previously determined time, has been ascertained as follows: the blood was centrifuged for ten minutes at 2000 rpm in order to obtain the massing of the red cells, two ml of the blood collected as above were put into an upside down turned cone made with filtering paper, being previously wetted with a physiological solution. The volume passing through the filter in 2 - 4 - 8 and 16 minutes is then measured. The average filtration time T 1/2 is reckoned on semi-logarithmic paper by putting on the abscissae the logarithm of the time, and on the ordinates the percentage of blood filtered. In order to follow the Schmidt Schönbein method, the here after described proceeding has been performed: 0,2 ml of a suspension of red cells at 2% obtained by diluting the blood with the autological plasma, then it was placed into an appropriate device permitting to filter this blood through a filter (millipores) of 5 µm mashes at a filtration pressure of 50 mm water. With a chronometer one determines the time required for the passage of the whole sample through the filter.
At time same time, one measures, in the same conditions, the same parameter for a plasma sample. One calculates then the relative filtration time by dividing the time required to filter the diluted blood sample by the time being necessary to filter the plasma sample. For each group the average and the standard error of the individual data obtained was reckoned. The statistical evaluation was obtained by means of the Dunnett test.

COc1cc(OC)c(C(=O)CCCN2CCCC2)c(OC)c1 [Example 1, 4-(1 pyrrholydinyl)-1-(2,4,6 trimethoxypheniyl)-1-nicotinized butanone]
Teitel method T1/2 min. M ± E.S. (dose 3 x 0,5 mM/kg/os (three consecutive days)): 2,26 ± 0,21 min. | Teitel method Δ % vs contr. (dose 3 x 0,5 mM/kg/os): 37,9%
